Here are results for 26 compounds from US12630492B2, “Cannabinoid derivatives” (CANOPY GROWTH CORPORATION, priority 2019, dated 2026).

Structures are written as SMILES. Like-named read-outs stand apart in the source and are kept apart here.

One may read the IC50 as the midpoint of a concentration-inhibition curve.

One experiment deals with T1, human CB1 receptor (Homo sapiens, UniProt P21554).
T1 construct: host or cells: CHO-K1 (Chinese hamster ovary) cells, stably transfected; membranes prepared in house
The experiment is described as follows: CB1 radioligand competitive binding assay ([3H]CP 55,940 displacement). The conditions noted are these: for Selectivity CB1: fold difference between CB1 and CB2 binding, printed in column of receptor with higher affinity, 1.00 in both = same affinity.

The target of the next experiment is T2, human CB2 receptor (Homo sapiens, UniProt P34972).
T2 construct: host or cells: CHO-K1 (Chinese hamster ovary) cells, stably transfected; membranes prepared in house
In words: CB2 radioligand competitive binding assay ([3H]CP 55,940 displacement). The conditions noted are these: for Selectivity CB2: fold difference between CB1 and CB2 binding, printed in column of receptor with higher affinity, 1.00 in both = same affinity.

Where [1] appears, read: [3H]CP 55,940 displacement, membranes of CHO-K1 cells expressing human CB1 receptor, read-out: CB1 IC50.
Where [2] appears, read: [3H]CP 55,940 displacement, membranes of CHO-K1 cells expressing human CB2 receptor, read-out: CB2 IC50.

T2 sequence (P34972 whole entry): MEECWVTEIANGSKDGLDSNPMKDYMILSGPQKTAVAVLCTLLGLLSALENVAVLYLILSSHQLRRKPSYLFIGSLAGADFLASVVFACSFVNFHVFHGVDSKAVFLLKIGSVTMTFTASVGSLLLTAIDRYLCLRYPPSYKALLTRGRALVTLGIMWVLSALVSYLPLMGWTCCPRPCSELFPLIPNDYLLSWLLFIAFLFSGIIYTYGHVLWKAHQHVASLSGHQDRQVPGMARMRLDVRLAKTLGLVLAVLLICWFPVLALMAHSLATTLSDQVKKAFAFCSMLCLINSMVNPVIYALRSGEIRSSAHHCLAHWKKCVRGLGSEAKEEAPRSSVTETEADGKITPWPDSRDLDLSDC
T1 sequence (P21554 whole entry): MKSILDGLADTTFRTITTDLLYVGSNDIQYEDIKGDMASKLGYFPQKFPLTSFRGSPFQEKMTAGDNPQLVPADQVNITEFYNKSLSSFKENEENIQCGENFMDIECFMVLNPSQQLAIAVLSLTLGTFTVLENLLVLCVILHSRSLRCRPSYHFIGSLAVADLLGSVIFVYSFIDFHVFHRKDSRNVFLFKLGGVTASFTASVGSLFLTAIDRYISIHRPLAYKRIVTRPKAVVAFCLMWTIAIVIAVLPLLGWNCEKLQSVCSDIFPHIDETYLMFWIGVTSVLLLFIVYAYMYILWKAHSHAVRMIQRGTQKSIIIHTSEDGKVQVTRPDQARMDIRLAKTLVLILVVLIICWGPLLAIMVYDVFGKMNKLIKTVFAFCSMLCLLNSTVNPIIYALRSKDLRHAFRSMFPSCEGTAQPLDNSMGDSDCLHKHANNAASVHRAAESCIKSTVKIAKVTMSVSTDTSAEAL

`CCCCCc1cc(O)c(-c2cccc(C)c2)c(OCOC(=O)OCC)c1` [Compound 5a, ethyl [3-hydroxy-2-(m-tolyl)-5-pentyl-phenoxy]methyl carbonate] yielded an IC50 at human CB1 receptor of 1000 to 9990 nM. At human CB2 receptor, the IC50 fell in the range of 50 to 990 nM and the “Selectivity CB2” value turned out to be 7.89.
Turning to `CCCCCc1cc(O)c(-c2cccc(C)c2)c(OCOCC)c1` [Compound 17a, 6-(ethoxymethoxy)-3′-methyl-4-pentyl-[1,1′-biphenyl]2-ol], the IC50 at human CB1 receptor (setting [1]) and at human CB2 receptor (setting [2]) was 1000 to 9990 nM throughout. The “Selectivity CB2” value at human CB2 receptor is 5.20.
As to `CCCCCc1cc(O)c(C2C=C(C)CCC2)c(OCOCC)c1` (centres unmarked) [Compound 17c, 6-(ethoxymethoxy)-5′-methyl-4-pentyl-1′,2′,3′,4′-tetrahydro-[1,1′-biphenyl]-2-ol], the 50% inhibitory concentration (IC50) at human CB1 receptor (setting [1]) was in the range of 1000 to 9990 nM; at human CB2 receptor (setting [2]) it was 50 to 990 nM. Moreover, at human CB2 receptor, the “Selectivity CB2” value is given as 2.47.
For `C=C(C)C1CCC(C)=CC1c1c(OCOCCOC)cc(CCCCC)cc1OCOCCOC` (centres unmarked) [2′d, 2′,6′-bis((2-methoxyethoxy)methoxy)-5-methyl-4′-pentyl-2-(prop-1-en-2-yl)-1,2,3,4-tetrahydro-1,1′-biphenyl], the values for the IC50 on human CB1 receptor (setting [1]) and at human CB2 receptor (setting [2]) were 1000 to 9990 nM and 50 to 990 nM, respectively. The “Selectivity CB2” value at human CB2 receptor is listed as 2.50.
For the compound `C=C(C)[C@@H]1CCC(C)=C[C@H]1c1c(O)cc(CCCCC)cc1OCOC(=O)OCC` [Compound 5d, ethyl (((6-hydroxy-5′-methyl-4-pentyl-2′-(prop-1-en-2-yl)-1′,2′,3′,4′-tetrahydro-[1,1′-biphenyl]-2-yl)oxy)methyl) carbonate], the IC50 on human CB1 receptor lay within 1000 to 9990 nM. Besides, on human CB2 receptor, the half-inhibitory concentration (IC50) is 1000 to 9990 nM and the “Selectivity CB2” value stood at 2.00.
For `CCCCCc1cc(OCOC(=O)C(C)(C)C)c(-c2cccc(C)c2)c(OCOC(=O)C(C)(C)C)c1` [8′a, [3-(2,2-dimethylpropanoyloxymethoxy)-2-(m-tolyl)-5-pentyl-phenoxy]methyl 2,2-dimethylpropanoate], the IC50 at human CB1 receptor (setting [1]) and on human CB2 receptor (setting [2]) was 50 to 990 nM throughout. Also, the “Selectivity CB2” value at human CB2 receptor is 7.14.
Turning to `C=C(C)C1CCC(C)=CC1c1c(OCN(C(=O)OC)c2ccccc2)cc(C(C)(C)CCCCCC)cc1OCN(C(=O)OC)c1ccccc1` (centres unmarked) [20′d, dimethyl (((5′-methyl-4-(2-methyloctan-2-yl)-2′-(prop-1-en-2-yl)-1′,2′,3′,4′-tetrahydro-[1,1′-biphenyl]-2,6-diyl)bis(oxy))bis(methylene))bis(phenylcarbamate)], the values for the IC50 on human CB1 receptor (setting [1]) and on human CB2 receptor (setting [2]) were over 10000 nM and 1000 to 9990 nM, respectively. For the same compound, the “Selectivity CB2” value on human CB2 receptor is reported as 1.25.
For `C=C(C)C1CCC(C)=CC1c1c(OCOC(=O)C(C)(C)C)cc(CCCCC)cc1OCOC(=O)C(C)(C)C` (centres unmarked) [8′d, ((5′-methyl-4-pentyl-2′-(prop-1-en-2-yl)-1′,2′,3′,4′-tetrahydro-[1,1′-biphenyl]-2,6-diyl)bis(oxy))bis(methylene) bis(2,2-dimethylpropanoate)] the same measures were 1000 to 9990 nM, 1000 to 9990 nM and 2.00.
For `C=C(C)C1CCC(C)=CC1c1c(OCOC(=O)C(C)(C)C)cc(C(C)(C)CCCCCC)cc1OCOC(=O)C(C)(C)C` (centres unmarked) [21′d, ((5′-methyl-4-(2-methyloctan-2-yl)-2′-(prop-1-en-2-yl)-1′,2′,3′,4′-tetrahydro-[1,1′-biphenyl]-2,6-diyl)bis(oxy))bis(methylene) bis(2,2-dimethylpropanoate)] the same measures were over 10000 nM, 1000 to 9990 nM and 13.33.
For `C=C(C)C1CCC(C)=CC1c1c(O)cc(CCCCC)cc1OCOCC` (centres unmarked) [Compound 17d, 6-(ethoxymethoxy)-5′-methyl-4-pentyl-2′-(prop-1-en-2-yl)-1′,2′,3′,4′-tetrahydro-[1,1′-biphenyl]-2-ol] the same measures were 1000 to 9990 nM, 50 to 990 nM and 1.53.
Regarding `C=C(C)C1CCC(C)=CC1c1c(O)cc(C(C)(C)CCCCCC)cc1OCN(C(=O)OC)c1ccccc1` (centres unmarked) [Compound 20d, methyl (((6-hydroxy-5′-methyl-4-(2-methyloctan-2-yl)-2′-(prop-1-en-2-yl)-1′,2′,3′,4′-tetrahydro-[1,1′-biphenyl]-2-yl)oxy)methyl)(phenyl)carbamate], the figures for the IC50 on human CB1 receptor (setting [1]) and on human CB2 receptor (setting [2]) were 1000 to 9990 nM and 50 to 990 nM, respectively. In addition, the “Selectivity CB2” value at human CB2 receptor came out at 1.94.
For `CCCCCc1cc(OCN(C(=O)OC)c2ccccc2)c(-c2cccc(C)c2)c(OCN(C(=O)OC)c2ccccc2)c1` [14′a, dimethyl (((3′-methyl-4-pentyl-[1,1′-biphenyl]-2,6-diyl)bis(oxy))bis(methylene))bis(phenylcarbamate)], the IC50 on human CB1 receptor (setting [1]) and at human CB2 receptor (setting [2]) was 50 to 990 nM each time. The “Selectivity CB2” value at human CB2 receptor amounted to 4.40.
In the case of `C=C(C)[C@@H]1CCC(C)=C[C@H]1c1c(O)cc(CCCCC)cc1OCN(C(=O)OC)c1ccccc1` [Compound 14d, methyl (((6-hydroxy-5′-methyl-4-pentyl-2′-(prop-1-en-2-yl)-1′,2′,3′,4′-tetrahydro-[1,1′-biphenyl]-2-yl)oxy)methyl)(phenyl)carbamate], on human CB1 receptor, the IC50 lay within 50 to 990 nM and the “Selectivity CB1” value is given as 2.53. This compound showed an IC50 at human CB2 receptor of 50 to 990 nM.
Take `C=C(C)C1CCC(C)=CC1c1c(O)cc(C(C)(C)CCCCCC)cc1OCOC(=O)C(C)(C)C` (centres unmarked) [Compound 21d, ((6-hydroxy-5′-methyl-4-(2-methyloctan-2-yl)-2′-(prop-1-en-2-yl)-1′,2′,3′,4′-tetrahydro-[1,1′-biphenyl]-2-yl)oxy)methyl pivalate]: the IC50 on human CB1 receptor (setting [1]) and at human CB2 receptor (setting [2]) was 1000 to 9990 nM throughout. On human CB2 receptor, the “Selectivity CB2” value was found to be 1.25.
In the case of `CCCCCc1cc(O)c(C2C=C(C)CCC2)c(OCOC(=O)C(C)(C)C)c1` (centres unmarked) [Compound 8c, ((6-hydroxy-5′-methyl-4-pentyl-1′,2′,3′,4′-tetrahydro-[1,1′-biphenyl]-2-yl)oxy)methyl pivalate], the values for the IC50 at human CB1 receptor (setting [1]) and at human CB2 receptor (setting [2]) were 50 to 990 nM and under 50 nM, respectively. Further, the “Selectivity CB2” value at human CB2 receptor is recorded as 8.85.
As to `C=C(C)[C@@H]1CCC(C)=C[C@H]1c1c(O)cc(C(C)(C)CCCCCC)cc1OCOC(=O)OCC` [Compound 22d, ethyl (((6-hydroxy-5′-methyl-4-(2-methyloctan-2-yl)-2′-(prop-1-en-2-yl)-1′,2′,3′,4′-tetrahydro-[1,1′-biphenyl]-2-yl)oxy)methyl) carbonate], the IC50 was 50 to 990 nM at human CB1 receptor (setting [1]) and under 50 nM at human CB2 receptor (setting [2]). For the same compound, at human CB2 receptor, the “Selectivity CB2” value amounted to 1.67.
Taken in the same sequence, the figures for `CCCCCc1cc(O)c(-c2cccc(C)c2)c(OCOC(=O)C(C)(C)C)c1` [Compound 8a, [3-hydroxy-2-(m-tolyl)-5-pentyl-phenoxy]methyl 2,2-dimethylpropanoate] were 50 to 990 nM, under 50 nM and 9.39.
On to `CCCCCc1cc(OCOCC)c(C2C=C(C)CCC2)c(OCOCC)c1` (centres unmarked) [17′c, 2′,6′-bis(ethoxymethoxy)-5-methyl-4′-pentyl-1,2,3,4-tetrahydro-1,1′-biphenyl], for which the concentration for half-maximal inhibition (IC50) on human CB1 receptor (setting [1]) was in the range of 1000 to 9990 nM.
With `C=C(C)C1CCC(C)=CC1c1c(O)cc(C(C)(C)CCCCCC)cc1OCOCC` (centres unmarked) [Compound 19d, 6-(ethoxymethoxy)-5′-methyl-4-(2-methyloctan-2-yl)-2′-(prop-1-en-2-yl)-1′,2′,3′,4′-tetrahydro-[1,1′-biphenyl]-2-ol], the half-inhibitory concentration (IC50) on human CB1 receptor (setting [1]) and on human CB2 receptor (setting [2]) was 50 to 990 nM throughout. The “Selectivity CB2” value on human CB2 receptor is listed as 1.83.
In the case of `CCCCCc1cc(O)c(C2C=C(C)CCC2)c(OCOCCOC)c1` (centres unmarked) [Compound 2c, 6-((2-methoxyethoxy)methoxy)-5′-methyl-4-pentyl-1′,2′,3′,4′-tetrahydro-[1,1′-biphenyl]-2-ol], the half-inhibitory concentration (IC50) is 1000 to 9990 nM on human CB1 receptor (setting [1]) and 50 to 990 nM on human CB2 receptor (setting [2]). Besides, the “Selectivity CB2” value at human CB2 receptor stood at 13.33.
On to `C=C(C)C1CCC(C)=CC1c1c(OCOC2CCCCC2)cc(CCCCC)cc1OCOC1CCCCC1` (centres unmarked) [18′d, 2′,6′-bis((cyclohexyloxy)methoxy)-5-methyl-4′-pentyl-2-(prop-1-en-2-yl)-1,2,3,4-tetrahydro-1,1′-biphenyl], for which the IC50 on human CB1 receptor (setting [1]) and on human CB2 receptor (setting [2]) was over 10000 nM throughout. Moreover, the “Selectivity CB1” value on human CB1 receptor was 1.00. For the same compound, at human CB2 receptor, the “Selectivity CB2” value is reported as 1.00.
On to `CCCCCc1cc(OCOCCOC)c(C2C=C(C)CCC2)c(OCOCCOC)c1` (centres unmarked) [2′c, 2′,6′-bis((2-methoxyethoxy)methoxy)-5-methyl-4′-pentyl-1,2,3,4-tetarhydro-1,1′-biphenyl], for which the IC50 on human CB1 receptor (setting [1]) is 50 to 990 nM; at human CB2 receptor (setting [2]) it was under 50 nM. The “Selectivity CB2” value at human CB2 receptor was found to be 6.38.
As to `CCCCCc1cc(OCOCC)c(-c2cccc(C)c2)c(OCOCC)c1` [17′a, 2,6-bis(ethoxymethoxy)-3′-methyl-4-pentyl-1,1′-biphenyl], the 50% inhibitory concentration (IC50) fell in the range of 1000 to 9990 nM on human CB1 receptor (setting [1]) and 50 to 990 nM at human CB2 receptor (setting [2]). For the same compound, the “Selectivity CB2” value on human CB2 receptor is on record as 8.97.
Taken in the same sequence, the figures for `C=C(C)C1CCC(C)=CC1c1c(O)cc(CCCCC)cc1OCOCCOC` (centres unmarked) [Compound 2d, 6-((2-methoxyethoxy)methoxy)-5′-methyl-4-pentyl-2′-(prop-1-en-2-yl)-1′,2′,3′,4′-tetrahydro-[1,1′-biphenyl]-2-ol] were 1000 to 9990 nM, 1000 to 9990 nM and 1.59.
Taken in the same sequence, the figures for `CCCCCc1cc(OCOC(=O)C(C)(C)C)c(C2C=C(C)CCC2)c(OCOC(=O)C(C)(C)C)c1` (centres unmarked) [8′c, ((5′-methyl-4-pentyl-1′,2′,3′,4′-tetrahydro-[1,1′-biphenyl]-2,6-diyl)bis(oxy))bis(methylene)bis(2,2-dimethylpropanoate)] were 50 to 990 nM, under 50 nM and 6.38.
As to `CCCCCc1cc(O)c(C2C=C(C)CCC2)c(OCN(C(=O)OC)c2ccccc2)c1` (centres unmarked) [Compound 14c, methyl (((6-hydroxy-5′-methyl-4-pentyl-1′,2′,3′,4′-tetrahydro-[1,1′-biphenyl]-2-yl)oxy)methyl)(phenyl)carbamate], the half-maximal inhibitory concentration (IC50) on human CB1 receptor (setting [1]) and at human CB2 receptor (setting [2]) was 1000 to 9990 nM throughout. Also, on human CB1 receptor, the “Selectivity CB1” value was 1.36.
